Measured values as given in paper PMC11859928, “Design, Synthesis, and Antiproliferative Activity of Novel Indole/1,2,4-Triazole Hybrids as Tubulin Polymerization Inhibitors” (Pharmaceuticals, 2025).
Where two headings read alike, the source gives them in different places.

Tests used:
IGROV1 [1] = assay: NCI one-dose assay; assay type: cell-based; conditions: Homo sapiens, IGROV-1, IGROV1, Ovarian cancer, read-out: Cell growth inhibition %
LOX IMVI [2] = assay: NCI one-dose assay; assay type: cell-based; conditions: Homo sapiens, Melanoma, read-out: Cell growth inhibition %
MALME-3M = assay: NCI one-dose assay; assay type: cell-based; conditions: Homo sapiens, Melanoma, read-out: Cell growth inhibition %
MDA-MB-435 = assay: NCI one-dose assay; assay type: cell-based; conditions: Homo sapiens, MDA-MB-435, Melanoma, read-out: Cell growth inhibition %
NCI-H226 = assay: NCI one-dose assay; assay type: cell-based; conditions: Homo sapiens, NCI-H226, Non-small cell lung cancer, read-out: Cell growth inhibition %
NCI-H23 = assay: NCI one-dose assay; assay type: cell-based; conditions: Homo sapiens, NCI-H23, Non-small cell lung cancer, read-out: Cell growth inhibition %
NCI-H460 = assay: NCI one-dose assay; assay type: cell-based; conditions: Homo sapiens, NCI-H460, Non-small cell lung cancer, read-out: Cell growth inhibition %
NCI/ADR-RES = assay: NCI one-dose assay; assay type: cell-based; conditions: Homo sapiens, Ovarian cancer, read-out: Cell growth inhibition %
OVCAR-5 = assay: NCI one-dose assay; assay type: cell-based; conditions: Homo sapiens, OVCAR-5, Ovarian cancer, read-out: Cell growth inhibition %
OVCAR-8 = assay: NCI one-dose assay; assay type: cell-based; conditions: Homo sapiens, OVCAR-8, Ovarian cancer, read-out: Cell growth inhibition %
PC-3 = assay: NCI one-dose assay; assay type: cell-based; conditions: Homo sapiens, PC-3, Prostate cancer, read-out: Cell growth inhibition %
RPMI-8226 = assay: NCI one-dose assay; assay type: cell-based; conditions: Homo sapiens, RPMI-8226, Leukemia, read-out: Cell growth inhibition %
SF-539 = assay: NCI one-dose assay; assay type: cell-based; conditions: Homo sapiens, SF-539, CNS cancer, read-out: Cell growth inhibition %
SK-MEL-5 = assay: NCI one-dose assay; assay type: cell-based; conditions: Homo sapiens, SK-MEL-5, Melanoma, read-out: Cell growth inhibition %
SNB-75 = assay: NCI one-dose assay; assay type: cell-based; conditions: Homo sapiens, SNB-75, CNS cancer, read-out: Cell growth inhibition %
TK-10 = assay: NCI one-dose assay; assay type: cell-based; conditions: Homo sapiens, TK-10, Renal cancer, read-out: Cell growth inhibition %
U251 = assay: NCI one-dose assay; assay type: cell-based; conditions: Homo sapiens, U-251, U251, CNS cancer, read-out: Cell growth inhibition %
UACC-62 = assay: NCI one-dose assay; assay type: cell-based; conditions: Homo sapiens, UACC-62, Melanoma, read-out: Cell growth inhibition %
786-0 = assay: NCI one-dose assay; assay type: cell-based, human; conditions: Homo sapiens, 786-0, 786-0, Renal cancer, read-out: Cell growth inhibition %
Description: (§1) The National Cancer Institute (NCI), Bethesda, USA, selected the final compounds 6a–j and 7a–j for in vitro anticancer screening. An initial in vitro single-dose anticancer experiment was performed with the entire NCI 60 cell lines derived from nine tumor subpanel cancer cell lines. The results for each compound were illustrated as a mean graph showing the percentage growth of treated cells compared to untreated control cells (see Supplementary Materials).
(§2) The NCI anticancer screening process has been thoroughly detailed. The Drug Evaluation Branch of the National Cancer Institute in Bethesda, […], USA, established the procedure and conducted the anticancer assay on 60 human tumor cell lines from nine neoplastic cancers.

A498 = assay: NCI one-dose assay; assay type: cell-based, human; conditions: Homo sapiens, A498, A498, Renal cancer, read-out: Cell growth inhibition %
Description: as §1, §2

HOP-92 = assay: NCI one-dose assay; assay type: cell-based, human; conditions: Homo sapiens, HOP-92, HOP-92, Non-small cell lung cancer, read-out: Cell growth inhibition %
Description: as §1, §2

UO-31 = assay: NCI one-dose assay; assay type: cell-based, human; conditions: Homo sapiens, UO-31, UO-31, Renal cancer, read-out: Cell growth inhibition %
Description: as §1, §2

MOLT-4 = assay: NCI five-dose assay; assay type: cell-based, human; conditions: MOLT-4, Leukemia
LOX IMVI [3] = assay: NCI five-dose assay; assay type: cell-based, human; conditions: Melanoma
SK-MEL-2 = assay: NCI five-dose assay; assay type: cell-based, human; conditions: SK-MEL-2, Melanoma
IGROV1 [4] = assay: NCI five-dose assay; assay type: cell-based, human; conditions: IGROV1, Ovarian cancer
ACHN = assay: NCI five-dose assay; assay type: cell-based, human; conditions: Renal cancer
Ovarian cancer subpanel = assay: NCI five-dose assay, subpanel mean; assay type: cell-based, human
Breast cancer subpanel = assay: NCI five-dose assay, subpanel mean; assay type: cell-based, human
NCI 60 cell lines = assay: NCI one-dose assay, full panel; assay type: cell-based, human; conditions: Homo sapiens, 60 cell, read-out: cell growth inhibition percentage, range
Description: as §1, §2

[5] = Homo sapiens, 48 h, read-out: LC50 (the source's name)
[6] = Homo sapiens, read-out: GI50 Conc. per Cell Lines

## Cc1ccc(C(=O)CSc2nnc(-c3c[nH]c4ccccc34)n2-c2ccccc2)cc1 [Compound 6h, 2-((5-(1H-Indol-3-yl)-4-phenyl-4H-1,2,4-triazol-3-yl)thio)-1-(p-tolyl)ethenone]
IGROV1 [1]
  inhibition at 10 µM: 75.8%
LOX IMVI [2]
  inhibition at 10 µM: 120%
MALME-3M
  inhibition at 10 µM: 64.8%
MDA-MB-435
  inhibition at 10 µM: 61.4%
NCI-H226
  inhibition at 10 µM: 141%
NCI-H23
  inhibition at 10 µM: 82.7%
NCI-H460
  inhibition at 10 µM: 70.7%
NCI/ADR-RES
  inhibition at 10 µM: 128%
OVCAR-5
  inhibition at 10 µM: 87%
OVCAR-8
  inhibition at 10 µM: 88.7%
PC-3
  inhibition at 10 µM: 57%
RPMI-8226
  inhibition at 10 µM: 41.1%
SF-539
  inhibition at 10 µM: 77.9%
SK-MEL-5
  inhibition at 10 µM: 67.1%
SNB-75
  inhibition at 10 µM: 101%
TK-10
  inhibition at 10 µM: 102%
U251
  inhibition at 10 µM: 90.2%
UACC-62
  inhibition at 10 µM: 76.1%
786-0
  inhibition at 10 µM: 135%
A498
  inhibition at 10 µM: 14.2%
HOP-92
  inhibition at 10 µM: 108%
UO-31
  inhibition at 10 µM: 69.7%
MOLT-4; [5]
  CC50: > 100 µM
MOLT-4; [6]
  GI50: 21.8 µM
MOLT-4
  TGI Conc. per Cell Lines: ˃100 µM
LOX IMVI [3]; [6]
  GI50: 14.3 µM
LOX IMVI [3]
  TGI Conc. per Cell Lines: 27.30 µM
SK-MEL-2; [5]
  CC50: > 100 µM
SK-MEL-2; [6]
  GI50: 30.2 µM
SK-MEL-2
  TGI Conc. per Cell Lines: >100 µM
IGROV1 [4]; Homo sapiens, IGROV-1, 48 h, read-out: LC50 (the source's name)
  CC50: 61 µM
IGROV1 [4]; Homo sapiens, IGROV-1, read-out: GI50 Conc. per Cell Lines
  GI50: 16.1 µM
IGROV1 [4]
  TGI Conc. per Cell Lines: 31.30 µM
ACHN; Homo sapiens, 48 h
  LC50: 62.3 µM
ACHN; [6]
  GI50: 13.7 µM
ACHN
  TGI Conc. per Cell Lines: 29.20 µM
Ovarian cancer subpanel; Homo sapiens, average sensitivity of all cell lines of the Ovarian cancer subpanel, read-out: GI50 Subpanel MID b
  GI50: 17.4 µM
Ovarian cancer subpanel; Ovarian cancer subpanel
  GI50 Selectivity Ratio (MID a/MID b): 1.10
Breast cancer subpanel; Breast cancer subpanel
  GI50 Selectivity Ratio (MID a/MID b): 1.07
Breast cancer subpanel; Homo sapiens, average sensitivity of all cell lines of the Breast cancer subpanel, read-out: GI50 Subpanel MID b
  GI50: 18 µM
NCI 60 cell lines; ten cancer cell lines with complete cell death
  inhibition at 10 µM: 101 to 141%
NCI 60 cell lines; twenty-five cell lines
  inhibition at 10 µM: 67 to 99%
